Results on four compounds are retold here after patent US20090318370A1, “NOVEL GLYCOCONJUGATED CHLORIN DERIVATIVES AND METHOD OF PRODUCING THE SAME” (REI Medical Co., Ltd., priority 2007, published 2009).

Data set [1] has as its system HeLa cells. Briefly: Evaluation of phototoxicity: WST-8 cell viability after light exposure (16 J/cm^2, halogen lamp, 500 nm cut-off filter). The format is cell-based. The following applies: drug concentration 0.5 μM; FIG. 3; light 16 J/cm^2. The procedure:
HeLa cells were plated in a 96-well plate to give a concentration of 5×10^3 cells/well (medium volume: 100 μL), and the plate was incubated at 37° C. in 5% CO2 atmosphere for 24 hours. To each well was added 100 μL of a drug solution containing 2% dimethylsulfoxide to give a certain concentration. The plate was further incubated at 37° C. in 5% CO2 atmosphere for 24 hours. Then, the medium was discarded and the cells were washed twice with phosphate buffered saline (100 μL). To each well was added 100 μL of Dulbecco's modified Eagle's medium (DMEM) containing 10% fetal calf serum (FCS). The cells were then exposed to light (16 J/cm^2) from a 100 W halogen lamp equipped with a 500 nm cut-off filter and a water jacket. After that, the plate was further incubated at 37° C. in 5% CO2 for 24 hours. And the plate was subjected to WST-8 assay and cell viability rates were calculated as relative values to those obtained in the absence of drugs. The average values of the result from 6 replicate experiments for each drug were calculated.
The light dose was adjusted by controlling the irradiation time by using a power meter.
WST assay is one of the method to determine the activity of dehydrogenase of cells, in which tetrazolium salt (WST-8) is reduced dependently on the number of viable cells. The amount of the reduction was determined by absorption spectroscopy to provide the relative amount of viable cells.
Phototoxicity were determined for the chlorin derivatives or porphyrin derivatives which were prepared in the above Example and Comparative Example and obtained as production intermediates, and the compound from Reference Example at a drug concentration of 0.5 μM according to the above evaluation method.
For the compounds No. 6 to 9 and 14 to 16 shown in Table 1, phototoxicity was determined at a drug concentration of 0.09 μM according to the above evaluation method.

Data set [2] deals with HeLa cells. The settings on record: non-patent reference 1; cited from earlier work.
For data set [3], the system named is some cells. The following applies: non patent reference 2; cited from earlier work.

Take “5,10,15,20-tetrakis[3-(β-D-glucopyranosyloxy)phenyl]chlorin [compound 15]”: the “phototoxicity compared with commercially available TPPS (No. 14)” value in data set [1] is recorded as “higher phototoxicity”. In data set [2], the “cytotoxicity by irradiation with light” value is on record as “show cytotoxicity by irradiation with light” and the “cytotoxicity in the dark” value is reported as “no cytotoxicity is found in the dark”.

Turning to `OC[C@H]1OC(Sc2c(F)c(F)c(-c3c4nc(c(-c5c(F)c(F)c(SC6O[C@H](CO)[C@@H](O)[C@H](O)[C@H]6O)c(F)c5F)c5ccc([nH]5)c(-c5c(F)c(F)c(SC6O[C@H](CO)[C@@H](O)[C@H](O)[C@H]6O)c(F)c5F)c5nc(c(-c6c(F)c(F)c(SC7O[C@H](CO)[C@@H](O)[C@H](O)[C@H]7O)c(F)c6F)c6ccc3[nH]6)C=C5)C=C4)c(F)c2F)[C@H](O)[C@@H](O)[C@@H]1O` (stereo partly drawn) [5,10,15,20-tetrakis(4,1′-thio-glucosyl-2,3,5,6-tetrafluorophenyl)porphyrin], the “cell death with irradiation of light” value in data set [3] is reported as “cell death can be observed with irradiation of light”.

On to `CC(=O)OCC1OC(Sc2c(F)c(F)c(-c3c4nc(c(-c5c(F)c(F)c(SC6OC(COC(C)=O)C(OC(C)=O)C(OC(C)=O)C6OC(C)=O)c(F)c5F)c5ccc([n-]5)c(-c5c(F)c(F)c(SC6OC(COC(C)=O)C(OC(C)=O)C(OC(C)=O)C6OC(C)=O)c(F)c5F)c5nc(c(-c6c(F)c(F)c(SC7OC(COC(C)=O)C(OC(C)=O)C(OC(C)=O)C7OC(C)=O)c(F)c6F)c6ccc3[n-]6)C3CN(C)CC53)C=C4)c(F)c2F)C(OC(C)=O)C(OC(C)=O)C1OC(C)=O.[Pd+2]` [compound 13, {5,10,15,20-tetrakis[4-(2,3,4,6-tetra-O-acetyl-β-D-glucopyranosylthio)-2,3,5,6-tetrafluorophenyl]-2,3-[methano(N-methyl)iminomethano]chlorinato}palladium (II)], for which the “phototoxicity of acetyl-protected compound compared with No. 6, 7, 8, 9 respectively” value in data set [1] is recorded as “phototoxicity was disappeared”.

Turning to `CN1CC2c3nc(c(-c4c(F)c(F)c(S[C@@H]5O[C@H](CO)[C@H](O)[C@H](O)[C@H]5O)c(F)c4F)c4ccc([nH]4)c(-c4c(F)c(F)c(S[C@@H]5O[C@H](CO)[C@H](O)[C@H](O)[C@H]5O)c(F)c4F)c4nc(c(-c5c(F)c(F)c(S[C@@H]6O[C@H](CO)[C@H](O)[C@H](O)[C@H]6O)c(F)c5F)c5ccc([nH]5)c3-c3c(F)c(F)c(S[C@@H]5O[C@H](CO)[C@H](O)[C@H](O)[C@H]5O)c(F)c3F)C=C4)C2C1` (stereo partly drawn) [compound 16, 5,10,15,20-tetrakis[4-(β-D-galactopyranosylthio)-2,3,5,6-tetrafluorophenyl]-2,3-[methano(N-methyl)iminomethano]chlorin], the “phototoxicity compared with commercially available TPPS (No. 14)” value in data set [1] was “higher phototoxicity”.
